# What was measured:
# [1] = Cytotoxicity measured as % loss of cells after 120 min; assay type: cell-based; conditions: rat, 2 h
# [2] = Cytotoxicity measured as % loss of cells after 60 min; assay type: cell-based; conditions: rat, 1 h
# [3] = Cytotoxicity measured as % loss of cells after 90 min; assay type: cell-based; conditions: rat
# [4] = biological target: Amine oxidase [flavin-containing] B (Bos taurus) (UniProt P56560)
# [5] = biological target: Amine oxidase [flavin-containing] B (Bos taurus) (UniProt P56560); experiment: Inactivation of monoamine oxidase measured as kinetic constant, KI at 0.8-4 conc range
# [6] = biological target: Amine oxidase [flavin-containing] B (Bos taurus) (UniProt P56560); experiment: Inactivation of monoamine oxidase measured as kinetic constant, Kinact at 0.8-4 conc range
# Sequence of Amine oxidase [flavin-containing] B (Bos taurus) (P56560 whole entry, looked up): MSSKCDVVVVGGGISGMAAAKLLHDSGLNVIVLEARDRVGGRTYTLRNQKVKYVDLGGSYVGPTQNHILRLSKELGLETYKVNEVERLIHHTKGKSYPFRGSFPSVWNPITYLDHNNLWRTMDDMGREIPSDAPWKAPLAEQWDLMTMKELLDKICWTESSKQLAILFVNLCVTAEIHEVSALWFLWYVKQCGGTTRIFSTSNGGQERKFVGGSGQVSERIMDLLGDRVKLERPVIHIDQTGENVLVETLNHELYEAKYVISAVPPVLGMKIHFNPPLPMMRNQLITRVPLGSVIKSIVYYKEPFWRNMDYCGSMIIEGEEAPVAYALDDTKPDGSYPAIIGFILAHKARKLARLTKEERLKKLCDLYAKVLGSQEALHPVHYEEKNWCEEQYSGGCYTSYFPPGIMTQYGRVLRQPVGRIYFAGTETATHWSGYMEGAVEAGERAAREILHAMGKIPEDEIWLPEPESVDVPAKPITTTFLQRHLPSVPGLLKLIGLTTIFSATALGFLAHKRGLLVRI
Structure (SMILES),Loss of cells [1],Loss of cells [2],Loss of cells [3],Ki [4],Ki [5],kinact [6]
CN1CC=C(c2ccccc2)CC1,81%,12%,58%,,,
CN(C)C/C=C/c1ccccc1,,,,1350 µM,1330 µM,0.00356 s⁻¹
C/C=C(\C)c1ccccc1,,,,1900 µM,,
C#CCN(C)Cc1ccccc1.CN1CC=C(c2ccccc2)CC1,5%,6%,11%,,,
C#CCN(C)Cc1ccccc1.NC1C=C(c2ccccc2)CCC1 (stereo not given),69%,24%,51%,,,
CN(C)C1C=C(c2ccccc2)CCC1 (stereo not given),,100%,,1040 µM,,
C#CCN(C)Cc1ccccc1.CN(C)C1C=C(c2ccccc2)CCC1 (stereo not given),,100%,,,,
NC1C=C(c2ccccc2)CCC1 (stereo not given),60%,28%,35%,510 µM,,

# Reference: ChEMBL document CHEMBL1124176, “1-Methyl-4-phenyl-1,2,3,6-tetrahydropyridine analogues. Inactivation of monoamine oxidase by conformationally rigid analogues of N,N-dimethylcinnamylamine” (J Med Chem, 1988)
